{
  "source": "patent US20260062422A1",
  "about": "(Halda Therapeutics OpCo, Inc., priority 2022, published 2026)",
  "key": {"[1]": {"tested_on": "T-Rex 293 cell line SC3 cells having increased expression of androgen receptor protein due to exposure to doxycycline", "test": "Cellular growth inhibition, T-Rex 293 SC3 cells with doxycycline (androgen receptor induced), CellTiter-Glo", "assay_type": "cell-based", "conditions": "T-Rex 293 SC3 cells with 10 ng/mL doxycycline (increased androgen receptor expression)", "how_it_was_run": "(§1)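 SC3 is a T-Rex 293 clone stably transfected with wild-type androgen receptor in pcDNA4/TO, inducible by 10 ng/mL doxycycline. Cells were grown in phenol red-free DMEM with 10% charcoal-dextran FBS, with or without doxycycline, dosed 24 h after seeding (0.5% DMSO) for 72 h. Viability was read by CellTiter-Glo 2.0 luminescence and GI50 obtained from four-parameter fits.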"}, "[2]": {"tested_on": "T-Rex 293 cell line SC3 cells lacking increased expression of androgen receptor protein", "test": "Cellular growth inhibition, T-Rex 293 SC3 cells without doxycycline, CellTiter-Glo", "assay_type": "cell-based", "conditions": "T-Rex 293 SC3 cells not exposed to doxycycline, CellTiter-Glo 2.0", "how_it_was_run": "as §1"}, "VCaP cells": {"tested_on": "VCaP cells", "test": "Cellular growth inhibition assay for VCaP cells, CellTiter-Glo", "assay_type": "cell-based, human", "conditions": "72 hours treatment, CellTiter-Glo 2.0", "how_it_was_run": "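GI50 values come from four-parameter curve fits of luminescence data normalized to a zero baseline. Compound, in medium with 0.5% DMSO, was added one day after plating and left for 72 h before CellTiter-Glo 2.0 addition.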"}, "T47D cells": {"tested_on": "T47D cells", "test": "Cellular growth inhibition assay for T47D cells, CellTiter-Glo", "assay_type": "cell-based, human", "conditions": "72 hours treatment, CellTiter-Glo 2.0 cell viability", "how_it_was_run": "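Cells are plated at 3000/well and allowed 24 h before treatment. Test compound in medium containing 0.5% DMSO is then added, with DMSO-only wells as negative control, and plates are incubated 72 h at 37 °C. ATP luminescence (CellTiter-Glo 2.0) is then fitted to four parameters to derive GI50.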"}},
  "data": [
    {"smiles": "Cc1sc2c(c1C)C(c1ccc(N[C@H]3CCCCN(c4ncc(C(=O)N[C@H]5C(C)(C)[C@H](Oc6ccc(C#N)c(Cl)c6)C5(C)C)cn4)C3)cc1)=NC(Cc1ncco1)c1nnc(C)n1-2", "note": "(stereo partly shown) [Compound I-655]", "values": [
      {"measurement": "GI50", "setting": "[1]; 72 h", "result": "< 0.5", "unit": "µM"},
      {"measurement": "GI50", "setting": "[2]; 72 h", "result": "> 3", "unit": "µM"},
      {"measurement": "GI50", "setting": "VCaP cells; Homo sapiens, VCaP, 72 h", "result": "1.5 to 3", "unit": "µM"},
      {"measurement": "GI50", "setting": "T47D cells; Homo sapiens, T47D, 72 h", "result": "0.5 to 1.5", "unit": "µM"}
    ]},
    {"smiles": "Cc1sc2c(c1C)C(c1ccc(C[C@H]3C[C@@]4(CCCN(c5ncc(C(=O)N[C@H]6C(C)(C)[C@H](Oc7ccc(C#N)c(Cl)c7)C6(C)C)cn5)C4)C3)cc1)=N[C@@H](Cc1ncco1)c1nnc(C)n1-2", "note": "[Compound I-156]", "values": [
      {"measurement": "GI50", "setting": "[1]; 72 h", "result": "< 0.5", "unit": "µM"},
      {"measurement": "GI50", "setting": "[2]; 72 h", "result": "> 3", "unit": "µM"},
      {"measurement": "GI50", "setting": "VCaP cells; Homo sapiens, VCaP, 72 h", "result": "> 3", "unit": "µM"},
      {"measurement": "GI50", "setting": "T47D cells; Homo sapiens, T47D, 72 h", "result": "> 3", "unit": "µM"}
    ]},
    {"smiles": "Cc1sc2c(c1C)C(c1ccc(OC3CC4(C3)C[C@H](C)N(c3ncc(C(=O)N[C@H]5C(C)(C)[C@H](Oc6ccc(C#N)c(Cl)c6)C5(C)C)cn3)[C@@H](C)C4)cc1)=N[C@@H](Cc1ncco1)c1nnc(C)n1-2", "note": "(stereo partly shown) [Compound I-282]", "values": [
      {"measurement": "GI50", "setting": "[1]; 72 h", "result": "< 0.5", "unit": "µM"},
      {"measurement": "GI50", "setting": "[2]; 72 h", "result": "> 3", "unit": "µM"},
      {"measurement": "GI50", "setting": "VCaP cells; Homo sapiens, VCaP, 72 h", "result": "> 3", "unit": "µM"},
      {"measurement": "GI50", "setting": "T47D cells; Homo sapiens, T47D, 72 h", "result": "< 0.5", "unit": "µM"}
    ]},
    {"smiles": "Cc1sc2c(c1C)C(c1ccc(C3CN(C(=O)C4CCN(c5ncc(C(=O)N[C@H]6C(C)(C)[C@H](Oc7ccc(C#N)c(Cl)c7)C6(C)C)cn5)CC4)C3)cc1)=N[C@@H](C)c1nnc(C)n1-2", "note": "[Compound I-590]", "values": [
      {"measurement": "GI50", "setting": "[1]; 72 h", "result": "< 0.5", "unit": "µM"},
      {"measurement": "GI50", "setting": "[2]; 72 h", "result": "< 0.5", "unit": "µM"},
      {"measurement": "GI50", "setting": "VCaP cells; Homo sapiens, VCaP, 72 h", "result": "< 0.5", "unit": "µM"},
      {"measurement": "GI50", "setting": "T47D cells; Homo sapiens, T47D, 72 h", "result": "< 0.5", "unit": "µM"}
    ]},
    {"smiles": "Cc1sc2c(c1C)C(c1ccc(N3CCC4(CC3)CC(Cc3ncc(C(=O)N[C@H]5C(C)(C)[C@H](Oc6ccc(C#N)c(Cl)c6)C5(C)C)cn3)C4)cc1)=NC(Cc1ncco1)c1nnc(C)n1-2", "note": "(stereo partly shown) [Compound I-460]", "values": [
      {"measurement": "GI50", "setting": "[1]; 72 hours", "result": "< 0.5", "unit": "µM"},
      {"measurement": "GI50", "setting": "[2]; 72 hours", "result": "0.5 to 1.5", "unit": "µM"},
      {"measurement": "GI50", "setting": "VCaP cells", "result": "< 0.5", "unit": "µM"},
      {"measurement": "GI50", "setting": "T47D cells", "result": "< 0.5", "unit": "µM"}
    ]},
    {"smiles": "COCC[C@@H]1N=C(c2ccc(N3CC(CC4CN(c5cnc(C(=O)N[C@H]6C(C)(C)[C@H](Oc7ccc(C#N)c(Cl)c7)C6(C)C)cn5)C4)C3)cc2)c2c(sc(C)c2C)-n2c(C)nnc21", "note": "[Compound I-611]", "values": [
      {"measurement": "GI50", "setting": "[1]; 72 h", "result": "< 0.5", "unit": "µM"},
      {"measurement": "GI50", "setting": "[2]; 72 h", "result": "< 0.5", "unit": "µM"},
      {"measurement": "GI50", "setting": "VCaP cells; Homo sapiens, VCaP, 72 h", "result": "< 0.5", "unit": "µM"},
      {"measurement": "GI50", "setting": "T47D cells; Homo sapiens, T47D, 72 h", "result": "1.5 to 3", "unit": "µM"}
    ]},
    {"smiles": "Cc1sc2c(c1C)C(c1ccc(C[C@H]3CCC4(CCCN(c5ncc(C(=O)N[C@H]6C(C)(C)[C@H](Oc7ccc(C#N)c(Cl)c7)C6(C)C)cn5)C4)C3)cc1)=N[C@@H](Cc1ncco1)c1nnc(C)n1-2", "note": "(stereo partly shown) [Compound I-163]", "values": [
      {"measurement": "GI50", "setting": "[1]; 72 h", "result": "< 0.5", "unit": "µM"},
      {"measurement": "GI50", "setting": "[2]; 72 h", "result": "> 3", "unit": "µM"},
      {"measurement": "GI50", "setting": "VCaP cells; Homo sapiens, VCaP, 72 h", "result": "> 3", "unit": "µM"},
      {"measurement": "GI50", "setting": "T47D cells; Homo sapiens, T47D, 72 h", "result": "1.5 to 3", "unit": "µM"}
    ]},
    {"smiles": "Cc1sc2c(c1C)C(c1ccc(N3C[C@@]4(F)CN(c5ncc(C(=O)N[C@H]6C(C)(C)[C@H](Oc7ccc(C#N)c(Cl)c7)C6(C)C)cn5)C[C@@]4(F)C3)cc1)=N[C@@H](C)c1nnc(C)n1-2", "note": "[Compound I-587]", "values": [
      {"measurement": "GI50", "setting": "[1]; 72 h", "result": "< 0.5", "unit": "µM"},
      {"measurement": "GI50", "setting": "[2]; 72 h", "result": "> 3", "unit": "µM"},
      {"measurement": "GI50", "setting": "VCaP cells; Homo sapiens, VCaP, 72 h", "result": "< 0.5", "unit": "µM"},
      {"measurement": "GI50", "setting": "T47D cells; Homo sapiens, T47D, 72 h", "result": "< 0.5", "unit": "µM"}
    ]},
    {"smiles": "Cc1sc2c(c1C)C(c1ccc(O[C@H]3COC4(CCN(c5ncc(C(=O)N[C@H]6C(C)(C)[C@H](Oc7ccc(C#N)c(Cl)c7)C6(C)C)cn5)C4)C3)cc1)=N[C@@H](Cc1ncco1)c1nnc(C)n1-2", "note": "(stereo partly shown) [Compound I-195]", "values": [
      {"measurement": "GI50", "setting": "[1]; 72 h", "result": "< 0.5", "unit": "µM"},
      {"measurement": "GI50", "setting": "[2]; 72 h", "result": "< 0.5", "unit": "µM"},
      {"measurement": "GI50", "setting": "VCaP cells; Homo sapiens, VCaP, 72 h", "result": "< 0.5", "unit": "µM"},
      {"measurement": "GI50", "setting": "T47D cells; Homo sapiens, T47D, 72 h", "result": "< 0.5", "unit": "µM"}
    ]},
    {"smiles": "Cc1sc2c(c1C)C(c1ccc(CCCOC3CCN(c4ncc(C(=O)N[C@H]5C(C)(C)[C@H](Oc6ccc(C#N)c(Cl)c6)C5(C)C)cn4)CC3)cc1)=C[C@H](Cc1ccncn1)c1nnc(C)n1-2", "note": "[Compound I-375]", "values": [
      {"measurement": "GI50", "setting": "[1]; 72 h", "result": "< 0.5", "unit": "µM"},
      {"measurement": "GI50", "setting": "[2]; 72 h", "result": "< 0.5", "unit": "µM"},
      {"measurement": "GI50", "setting": "VCaP cells; Homo sapiens, VCaP, 72 h", "result": "< 0.5", "unit": "µM"},
      {"measurement": "GI50", "setting": "T47D cells; Homo sapiens, T47D, 72 h", "result": "< 0.5", "unit": "µM"}
    ]},
    {"smiles": "Cc1sc2c(c1C)C(c1ccc(CC3CC4(CCN(c5ncc(C(=O)N[C@H]6C(C)(C)[C@H](Oc7ccc(C#N)c(Cl)c7)C6(C)C)cn5)CC4)C3)cc1)=N[C@@H](Cc1ncco1)c1nnc(C)n1-2", "note": "[Compound I-142]", "values": [
      {"measurement": "GI50", "setting": "[1]; 72 h", "result": "< 0.5", "unit": "µM"},
      {"measurement": "GI50", "setting": "[2]; 72 h", "result": "> 3", "unit": "µM"},
      {"measurement": "GI50", "setting": "VCaP cells; Homo sapiens, VCaP, 72 h", "result": "> 3", "unit": "µM"},
      {"measurement": "GI50", "setting": "T47D cells; Homo sapiens, T47D, 72 h", "result": "> 3", "unit": "µM"}
    ]},
    {"smiles": "CCNC(=O)C[C@@H]1N=C(c2ccc(OCCN3CCN(c4ncc(C(=O)N[C@H]5C(C)(C)[C@H](Oc6ccc(C#N)c(Cl)c6)C5(C)C)cn4)CC3)cc2)c2c(sc(C)c2C)-n2c(C)nnc21", "note": "[Compound I-70]", "values": [
      {"measurement": "GI50", "setting": "[1]; 72 h", "result": "< 0.5", "unit": "µM"},
      {"measurement": "GI50", "setting": "[2]; 72 h", "result": "0.5 to 1.5", "unit": "µM"},
      {"measurement": "GI50", "setting": "VCaP cells; Homo sapiens, VCaP, 72 h", "result": "< 0.5", "unit": "µM"},
      {"measurement": "GI50", "setting": "T47D cells; Homo sapiens, T47D, 72 h", "result": "0.5 to 1.5", "unit": "µM"}
    ]},
    {"smiles": "Cc1sc2c(c1C)C(c1ccc(C3CC(N4CCN(c5ncc(C(=O)N[C@H]6C(C)(C)[C@H](Oc7ccc(C#N)c(Cl)c7)C6(C)C)cn5)CC4)C3)cc1)=N[C@@H](C)c1nnc(C)n1-2", "note": "(stereo partly shown) [Compound I-571]", "values": [
      {"measurement": "GI50", "setting": "[1]; 72 h", "result": "< 0.5", "unit": "µM"},
      {"measurement": "GI50", "setting": "[2]; 72 h", "result": "0.5 to 1.5", "unit": "µM"},
      {"measurement": "GI50", "setting": "VCaP cells; Homo sapiens, VCaP, 72 h", "result": "< 0.5", "unit": "µM"},
      {"measurement": "GI50", "setting": "T47D cells; Homo sapiens, T47D, 72 h", "result": "< 0.5", "unit": "µM"}
    ]}
  ]
}
